Like-named read-outs stand apart in the source and are kept apart here.
Legend:
[1] = system: Candida Albicans strain B311A; assay: MIC assay (Example 1B); format: cell-based; conditions: purification fractions, result in words
Description: The fractions from the purification were tested for antifungal activity against C. albicans (strain B311A available from Dr. Paul Actor, Temple University and strains ATCC Nos. 10231 and 10261) and C. tropicalis (strain 13803). Fungi were grown in 1× yeast nitrogen broth ("YNB") medium (BBL, Cockeysville, Md.) containing 15 μg/ml aspargine and 100 μg/ml kanamycin. Prior to the assay for antifungal activity, the fungus to be tested for susceptibility was grown overnight from a single colony in 5 ml of medium at 30° C. This overnight culture was diluted 1:10 with fresh medium and grown at 37° C. for 4 hours. A volume of 5 μl of extracts, dissolved in DMSO, was added to each separate well in a series of 96-well plates. 4,000 fungal cells were then added to each plate in 95 μl of medium. The optical densities of the wells were measured and the plates incubated at 37° C. The optical densities were again measured after 24 and 48 hours. Minimum inhibitory concentrations ("MICs") for the extracts were determined using this procedure wherein the extracts were serially diluted in medium prior to mixing with the 4,000 fungal cells.
Using the procedure described in the previous paragraph, it was determined that the MICs for compound A and compound B against Candida Albicans strain B311A grown in YNB medium were 25 μg/ml and 6.25 μg/ml, respectively. […]

FAS from S. cereviseae = molecular target: T1, FAS from S. cereviseae (Saccharomyces cerevisiae, UniProt P07149+P19097); assay: FAS inhibition assay (Example 1C); format: biochemical, Saccharomyces cerviseae; conditions: result in words
T1 construct: an FAS extract from Saccharomyces cerviseae was prepared; (the yeast cells); host or cells: Fleishmans' freeze dried yeast (Saccharomyces cerevisiae); lysate, 50% ammonium sulfate precipitate, dialyzed
Description: To test the compounds for FAS inhibitory activity, an FAS extract from Saccharomyces cerviseae was prepared. Freeze dried yeast (Fleishmans' freeze dried yeast, Specialty Brands, San Francisco, Calif.) 1 g, was hydrated in 5 mls deionized water for 15 minutes at 4° C. Subsequent extraction steps were conducted at a temperature between 4° C. and 10° C., except that in the cell lysis step the temperature may have briefly exceeded these boundaries. The cells were pelleted by centrifugation; the pelleted volume was measured; and the cells were resuspended in 5 vol. (5 mls per ml cell volume) extraction buffer [125 mM KH2PO4, pH 6.6, 1 mM EDTA, 1 mM DTT, 0.7 μg/ml pepstatin (Boehringer Mannheim, Indianapolis, Ind.), 0.2 μg/ml aprotinin (Boehringer Mannheim, Indianapolis, Ind.), 0.2 μg/ml leupeptin (Boehringer Mannheim, Indianapolis, Ind.)]. The cells were again pelleted and resuspended in 2 vol. extraction buffer. […]
105 μl of FAS extract was placed in each well of a polypropylene 96 well plate (Costar Corp. Cambridge, Mass.) and multiple 5 μl dilutions of compound A, compound B or negative control solution were introduced into each of the wells. […] The relative initial reaction rates in each well were measured by measuring the decrease in optical density at 340 nm using a UV Max microtiter plate reader (Molecular Devices, Sunnyvalle, Calif.).

Fungal cells = assay: Disk diffusion assay for antimicrobial activity; format: cell-based; conditions: 37° C., 24 hours; for zone of inhibition at 100 µg/disc: 100 μg per 6 mm disk, Sabouraud Dextrose Agar, read-out: zone of growth inhibition diameter; for zone appearance (clear = fungicidal, hazy = fungistatic): disk diffusion; for zone of growth inhibition diameter: positive control disks 2.5 and 10 μg
Description: (§1) Fungal cells were grown overnight from a single colony in 2-5 ml Sabouraud Dextrose Broth at 37° C. 1-5×10^6 were spread onto Sabouraud Dextrose Agar plates (Difco, Detroit, Mich.). Sterile 6 mm filter disks were evenly spaced with at least about 22 mm separation on the plates. To each disk, 100 μg of a compound to be tested was applied in 5-10 μl DMSO. On each plate, two disks containing 2.5 and 10 μg, respectively, of Amphotericin B (Sigma) and two disks containing 2.5 and 10 μg, respectively, of cerulenin (Sigma) were used as positive controls. A disk containing only DMSO served as the negative control. The plates were incubated at 37° C. for 24 hours and the zone of growth inhibition about each disk was visually examined and measured. Compound A and compound B typically produced clear zones of 8-12 mm diameter. Amphotericin B typically produced a clear zone of 8-10 mm diameter. Cerulenin typically produced a hazy zone of 20-25 mm diameter. A clear zone is indicative of fungicidal activity, while a hazy zone is indicative of fungistatic activity.

[2] = system: Candida albicans (strains ATCC 10231 and ATCC 10261); assay: Disk diffusion assay, Candida albicans; format: cell-based
Description: as §1

[3] = system: Candida tropicalis (strain ATCC 13803); assay: Disk diffusion assay, Candida tropicalis; format: cell-based
Description: as §1

[4] = system: Fusarium acuminatum (strains ATCC 32965 and ATCC 32966); assay: Disk diffusion assay, Fusarium acuminatum; format: cell-based
Description: as §1

FAS = molecular target: T2, FAS (Candida albicans, UniProt P43098); assay: FAS activity in extracts of treated C. albicans cultures (Example 10); format: cell-based
T2 construct: endogenous in cells; host or cells: Candida albicans strain 4918
T2 sequence (P43098 whole entry): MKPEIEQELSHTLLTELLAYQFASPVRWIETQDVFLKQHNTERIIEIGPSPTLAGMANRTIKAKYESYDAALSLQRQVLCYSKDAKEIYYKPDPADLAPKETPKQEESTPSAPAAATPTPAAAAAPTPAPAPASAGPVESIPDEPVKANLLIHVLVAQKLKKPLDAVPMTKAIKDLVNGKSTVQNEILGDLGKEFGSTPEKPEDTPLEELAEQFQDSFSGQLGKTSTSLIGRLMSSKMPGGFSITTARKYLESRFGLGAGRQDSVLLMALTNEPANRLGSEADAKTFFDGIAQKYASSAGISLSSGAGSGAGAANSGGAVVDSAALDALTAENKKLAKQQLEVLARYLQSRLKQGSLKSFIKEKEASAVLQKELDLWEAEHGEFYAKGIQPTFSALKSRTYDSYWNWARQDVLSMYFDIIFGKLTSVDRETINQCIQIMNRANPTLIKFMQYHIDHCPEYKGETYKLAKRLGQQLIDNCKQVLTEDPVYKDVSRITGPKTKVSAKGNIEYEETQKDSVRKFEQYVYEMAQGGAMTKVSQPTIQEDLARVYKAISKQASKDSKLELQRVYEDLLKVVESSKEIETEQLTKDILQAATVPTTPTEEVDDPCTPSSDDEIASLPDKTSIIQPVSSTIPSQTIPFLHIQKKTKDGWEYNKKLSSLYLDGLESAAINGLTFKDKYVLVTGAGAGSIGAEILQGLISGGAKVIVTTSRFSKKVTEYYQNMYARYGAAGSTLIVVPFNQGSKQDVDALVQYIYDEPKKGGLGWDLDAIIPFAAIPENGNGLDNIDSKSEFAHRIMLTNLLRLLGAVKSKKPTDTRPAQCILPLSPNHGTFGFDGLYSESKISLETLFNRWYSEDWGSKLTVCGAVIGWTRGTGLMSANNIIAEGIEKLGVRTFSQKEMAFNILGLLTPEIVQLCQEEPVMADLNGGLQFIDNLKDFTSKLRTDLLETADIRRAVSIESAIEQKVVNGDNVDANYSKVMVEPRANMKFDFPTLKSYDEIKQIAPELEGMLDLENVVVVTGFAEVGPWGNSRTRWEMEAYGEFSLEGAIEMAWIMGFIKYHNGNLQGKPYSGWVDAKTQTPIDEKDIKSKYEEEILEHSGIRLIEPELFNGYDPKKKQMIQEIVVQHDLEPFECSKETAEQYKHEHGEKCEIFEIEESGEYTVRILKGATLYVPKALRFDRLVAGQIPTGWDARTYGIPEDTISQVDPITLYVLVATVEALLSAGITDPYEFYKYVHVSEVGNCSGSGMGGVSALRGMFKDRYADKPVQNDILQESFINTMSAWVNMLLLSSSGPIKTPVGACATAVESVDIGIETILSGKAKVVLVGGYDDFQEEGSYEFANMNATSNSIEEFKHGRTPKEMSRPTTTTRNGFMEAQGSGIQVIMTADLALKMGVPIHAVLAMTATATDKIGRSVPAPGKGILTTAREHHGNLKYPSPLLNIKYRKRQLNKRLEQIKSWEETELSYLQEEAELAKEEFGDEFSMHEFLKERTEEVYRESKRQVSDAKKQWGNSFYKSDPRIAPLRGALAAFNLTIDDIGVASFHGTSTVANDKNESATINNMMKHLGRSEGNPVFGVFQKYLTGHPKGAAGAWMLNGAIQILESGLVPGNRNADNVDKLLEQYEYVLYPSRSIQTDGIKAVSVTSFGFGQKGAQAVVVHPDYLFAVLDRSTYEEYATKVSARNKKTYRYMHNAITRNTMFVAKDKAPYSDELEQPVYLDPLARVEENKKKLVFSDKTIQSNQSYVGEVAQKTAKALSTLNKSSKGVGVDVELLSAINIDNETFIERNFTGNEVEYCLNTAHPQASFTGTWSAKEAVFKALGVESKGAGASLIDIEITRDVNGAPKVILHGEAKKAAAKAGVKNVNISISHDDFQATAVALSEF
T2 sequence (P34731 whole entry partner): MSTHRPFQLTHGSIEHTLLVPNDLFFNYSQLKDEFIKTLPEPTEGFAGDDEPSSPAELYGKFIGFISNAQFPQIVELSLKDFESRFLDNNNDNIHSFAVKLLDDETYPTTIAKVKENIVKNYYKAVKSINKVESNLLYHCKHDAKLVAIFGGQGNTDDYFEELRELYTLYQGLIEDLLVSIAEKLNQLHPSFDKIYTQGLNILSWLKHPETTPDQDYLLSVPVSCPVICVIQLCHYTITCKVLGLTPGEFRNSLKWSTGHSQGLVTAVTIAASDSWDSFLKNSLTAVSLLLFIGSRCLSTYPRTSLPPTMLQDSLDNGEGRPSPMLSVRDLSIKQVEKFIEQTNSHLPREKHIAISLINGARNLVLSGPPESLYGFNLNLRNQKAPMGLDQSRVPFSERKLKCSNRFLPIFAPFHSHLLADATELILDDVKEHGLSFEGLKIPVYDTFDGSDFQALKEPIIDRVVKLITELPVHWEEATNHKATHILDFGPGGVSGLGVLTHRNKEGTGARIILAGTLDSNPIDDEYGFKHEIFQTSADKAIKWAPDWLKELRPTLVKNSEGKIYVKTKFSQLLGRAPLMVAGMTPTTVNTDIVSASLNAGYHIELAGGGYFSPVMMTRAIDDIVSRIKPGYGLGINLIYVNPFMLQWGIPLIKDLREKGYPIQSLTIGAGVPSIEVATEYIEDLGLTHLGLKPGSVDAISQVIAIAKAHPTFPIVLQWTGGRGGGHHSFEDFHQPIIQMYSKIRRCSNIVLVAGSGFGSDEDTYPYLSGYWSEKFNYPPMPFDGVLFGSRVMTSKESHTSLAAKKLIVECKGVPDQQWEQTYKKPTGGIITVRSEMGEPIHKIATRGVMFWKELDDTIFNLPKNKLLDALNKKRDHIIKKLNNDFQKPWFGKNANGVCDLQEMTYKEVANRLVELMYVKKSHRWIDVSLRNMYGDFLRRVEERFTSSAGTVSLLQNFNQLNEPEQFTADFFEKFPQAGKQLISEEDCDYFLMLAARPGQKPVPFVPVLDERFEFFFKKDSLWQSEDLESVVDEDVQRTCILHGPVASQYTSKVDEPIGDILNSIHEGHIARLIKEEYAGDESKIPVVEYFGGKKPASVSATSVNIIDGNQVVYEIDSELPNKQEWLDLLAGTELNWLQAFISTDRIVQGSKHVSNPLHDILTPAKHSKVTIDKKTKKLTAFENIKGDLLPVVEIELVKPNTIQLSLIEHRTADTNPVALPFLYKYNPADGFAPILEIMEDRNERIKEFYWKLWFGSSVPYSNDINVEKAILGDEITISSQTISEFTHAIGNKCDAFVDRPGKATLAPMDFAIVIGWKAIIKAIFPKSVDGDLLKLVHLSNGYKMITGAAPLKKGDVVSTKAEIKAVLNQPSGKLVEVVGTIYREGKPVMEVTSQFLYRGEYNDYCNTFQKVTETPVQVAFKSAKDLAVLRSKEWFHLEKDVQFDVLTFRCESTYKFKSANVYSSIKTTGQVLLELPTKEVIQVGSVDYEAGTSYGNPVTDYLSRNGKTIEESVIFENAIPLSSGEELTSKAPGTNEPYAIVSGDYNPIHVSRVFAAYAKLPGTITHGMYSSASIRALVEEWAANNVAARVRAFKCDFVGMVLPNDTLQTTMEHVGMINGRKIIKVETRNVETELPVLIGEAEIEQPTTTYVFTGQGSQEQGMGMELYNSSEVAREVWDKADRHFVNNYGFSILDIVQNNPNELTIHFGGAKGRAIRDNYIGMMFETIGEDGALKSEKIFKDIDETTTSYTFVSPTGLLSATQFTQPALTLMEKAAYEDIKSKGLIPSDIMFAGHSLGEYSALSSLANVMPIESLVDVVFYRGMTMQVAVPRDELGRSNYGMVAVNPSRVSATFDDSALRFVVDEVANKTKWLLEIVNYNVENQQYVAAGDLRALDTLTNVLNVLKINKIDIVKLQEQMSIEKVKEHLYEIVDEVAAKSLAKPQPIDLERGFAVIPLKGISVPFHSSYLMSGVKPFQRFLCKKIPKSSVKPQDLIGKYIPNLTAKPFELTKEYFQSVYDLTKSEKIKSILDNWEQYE
Description: C. Albicans strain 4918 (available from Dr. Ronald Cihlar, Georgetown University Medical Center, Washington, D.C.) was grown in minimal medium (M63 media available from Difco, Detroit, Mich.) at 37° C. to mid-log phase. 10 μg/ml cerulenin and 25 μg/ml of compound B were added to separate cultures. At 15 minute intervals, 20 ml samples were removed and extracts prepared by mechanical extraction as in Example 1C, except that the ammonium sulfate precipitation step was not applied. The extract was diluted to 1 ml to form a solution containing 0.4M potassium phosphate, pH 7.3, 0.125 μM dithiothreitol, 50 μM acetyl-CoA, 100 μM NADPH. After incubation at 37° C. for 5 minutes, 100 μM malonyl-CoA containing 0.5 μCi [2-^14 C]-malonyl-CoA (Amersham, Arlington Heights, Ill.). After 10 minutes at 37° C., the fatty acid synthesis reaction was terminated by adding 30 μl of 60% perchloric acid (v/v) and 1 ml ethanol. Four volumes of pet. ether were added to each reaction incubation to extract the fatty acids. The relative incorporation of malonyl-CoA into fatty acids was determined by liquid scintillation counting.

[5] = system: C. albicans strain ATCC 10231; assay: Murine systemic model of candidiasis; format: in vivo, mice; conditions: for Deaths Each Day Post Inoculation: 10 mg/kg IP
Description: In vivo activity was determined using a murine systemic model of candidiasis. Groups of 5 to 10 mice were inoculated IV with 1-2×10^7 cells of C. albicans strain ATCC 10231 (10 times the lethal dose). One hour after inoculation, the candidate antifungal compounds were delivered IP. 10 mg/kg of compound A was injected into each mouse of the compound A treatment group. Two separate treatment groups received 30 and 100 mg/kg, respectively, of compound B. Amphotericin B was injected into a positive control treatment group at 10 mg/kg. All compounds were delivered in phosphate-buffered saline (PBS) and one treatment group received PBS. Twice daily thereafter the mice were observed, the number of dead mice recorded, and the dead mice removed. After nine days, the total mortality over the period was determined.
Using the same methodology, it was determined that the maximal tolerated dose in these mice (i.e., the maximum dose that caused no deaths within 72 hours following IP administration) of compound B was in excess of 200 mg/kg. The mice treated with 2108B or Amphotericin B injected IP in […] of phosphate buffered saline, pH 7.4 had the following treatment profiles: […]

[6] = 0.5 h, read-out: Percent Remaining FAS Activity

Compound | activity in the MIC assay of Example 1B [1] | activity in the enzyme inhibition assay of Example 1C (FAS from S. cereviseae) | zone of inhibition at 100 µg/disc (Fungal cells) [mm] | zone appearance (clear = fungicidal, hazy = fungistatic) (Fungal cells) | antimicrobial activity [2] | antimicrobial activity [3] | antimicrobial activity [4] | zone of growth inhibition diameter (Fungal cells) | other results
C/C=C/C=C/C=C/C1=CC2=CC(=O)C(C)(OC(=O)CC(C)O)C(=O)C23OC3O1 (centres unmarked) [Compound A] | retained activity | retained activity | 8 to 12 | clear zones | had antimicrobial activity | had antimicrobial activity | had antimicrobial activity | – | –
C/C=C/C=C/C=C/C1=CC2=CC(=O)C(C)(OC(=O)CC(C)O)C(=O)C2=CO1 (centres unmarked) [Compound B] | retained activity | not directly inhibitory of FAS | 8 to 12 | clear zones | had antimicrobial activity | had antimicrobial activity | had antimicrobial activity | – | FAS activity of cell extracts made after exposure (FAS): markedly reduced FAS activity; remaining activity at 25 µg/mL (FAS; [6]): 40%
C/C=C/C=C/C=C/C1=CC2=CC(=O)C(C)(OC(=O)CC(O)CC(C)O)C(=O)C23OC3O1 (centres unmarked) [patulodin] | – | – | 7 | – | – | – | – | – | –
C/C=C/C/C=C/CCC(=O)[C@H]1O[C@H]1C(N)=O [Cerulenin, cerulenin] | – | – | – | hazy zone | – | – | – | 20-25 mm | remaining activity at 10 µg/mL (FAS; 0.25 h, read-out: Percent Remaining FAS Activity): 20%; remaining activity at 10 µg/mL (FAS; [6]): 12%
C[C@@H]1[C@H](O)[C@@H](C)/C=C/C=C/C=C/C=C/C=C/C=C/C=C/[C@H](O[C@@H]2O[C@H](C)[C@@H](O)[C@H](N)[C@@H]2O)C[C@@H]2O[C@](O)(C[C@@H](O)C[C@@H](O)[C@H](O)CC[C@@H](O)C[C@@H](O)CC(=O)O[C@H]1C)C[C@H](O)[C@H]2C(=O)O [Amphotericin B] | – | – | – | clear zone | – | – | – | 8-10 mm | % Survival ([5]; 10 mg/kg IP one hour after inoculation, nine days): 80%; Deaths Each Day Post Inoculation ([5]; day 0): 0; Deaths Each Day Post Inoculation ([5]; day 1): 0; Deaths Each Day Post Inoculation ([5]; day 3): 0; Deaths Each Day Post Inoculation ([5]; day 5): 0; Deaths Each Day Post Inoculation ([5]; day 6): 0; Deaths Each Day Post Inoculation ([5]; day 7): 0; Deaths Each Day Post Inoculation ([5]; day 8): 0; Deaths Each Day Post Inoculation ([5]; day 9): 0
